This is an account of results in ChEMBL document CHEMBL1150518, “Balanced angiotensin II receptor antagonists. III. The effects of substitution at the imidazole 5-position” (Bioorg Med Chem Lett, 1994).

In test [1] the target is T1, Type-2 angiotensin II receptor (Homo sapiens, UniProt P50052).
T1 sequence (P50052 whole entry): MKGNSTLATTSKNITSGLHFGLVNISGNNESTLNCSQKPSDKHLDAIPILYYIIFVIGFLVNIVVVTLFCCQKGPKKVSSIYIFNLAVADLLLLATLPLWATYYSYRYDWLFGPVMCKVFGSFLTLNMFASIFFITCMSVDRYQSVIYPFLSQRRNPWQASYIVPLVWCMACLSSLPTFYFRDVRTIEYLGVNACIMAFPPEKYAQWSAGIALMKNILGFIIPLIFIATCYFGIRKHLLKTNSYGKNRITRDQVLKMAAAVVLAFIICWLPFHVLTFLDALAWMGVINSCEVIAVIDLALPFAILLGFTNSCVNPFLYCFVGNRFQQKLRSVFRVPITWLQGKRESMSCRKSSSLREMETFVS
Description: Binding affinity for angiotensin II AT-2 receptor.

Test [2] deals with T2, Type-1 angiotensin II receptor (Homo sapiens, UniProt P30556).
T2 sequence (P30556 whole entry): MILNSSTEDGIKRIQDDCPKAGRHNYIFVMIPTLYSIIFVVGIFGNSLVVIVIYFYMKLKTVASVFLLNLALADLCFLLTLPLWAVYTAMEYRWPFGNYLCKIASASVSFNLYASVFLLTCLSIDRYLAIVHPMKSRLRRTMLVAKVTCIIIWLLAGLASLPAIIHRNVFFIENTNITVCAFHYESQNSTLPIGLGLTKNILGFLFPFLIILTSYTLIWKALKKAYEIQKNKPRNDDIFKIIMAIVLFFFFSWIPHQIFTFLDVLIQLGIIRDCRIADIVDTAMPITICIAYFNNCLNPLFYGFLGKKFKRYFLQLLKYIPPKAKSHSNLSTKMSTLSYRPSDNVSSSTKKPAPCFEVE
In words: Binding affinity for Angiotensin II receptor, type 1.

Broadly, the IC50 is the midpoint of a concentration-inhibition curve. A high value points to a need for much substance. For the compound `CCCc1nc(CC)c(C(=O)OCc2ccc(C(=O)c3ccccc3)cc2)n1Cc1ccc(-c2ccccc2-c2nn[nH]n2)cc1`, the half-maximal inhibitory concentration (IC50) in test [1] was 2000 nM; in test [2], 9 nM.

As for `CCCc1nc(CC)c(C(=O)OCc2ccccc2NC(=O)c2ccccc2)n1Cc1ccc(-c2ccccc2S(=O)(=O)NC(=O)OCCC(C)C)cc1F`, the values for the half-inhibitory concentration (IC50) in test [1] and in test [2] were 1 nM and 0.3 nM, respectively.

With `CCCc1nc(CC)c(C(=O)OCCCCOc2ccccc2)n1Cc1ccc(-c2ccccc2S(=O)(=O)NC(=O)OCCC(C)C)cc1F`, the IC50 in test [1] was found to be 2 nM; in test [2] it was 0.2 nM.

Take `CCCc1nc(CC)c(C(=O)OCCN(C(=O)OCCC(C)C)c2ccccc2)n1Cc1ccc(-c2ccccc2S(=O)(=O)NC(=O)OCCC(C)C)cc1F`: the IC50 in test [1] stood at 4 nM; in test [2], 0.2 nM.

In the case of `CCCc1nc(CC)c(C(=O)OCc2ccccc2C(=O)c2ccccc2)n1Cc1ccc(-c2ccccc2S(=O)(=O)NC(=O)OC)cc1`, the figures for the IC50 in test [1] and in test [2] were 10 nM and 0.6 nM, respectively.

For the compound `CCCc1nc(CC)c(C(=O)OCCN(C(=O)c2ccccc2)c2ccccc2)n1Cc1ccc(-c2ccccc2S(=O)(=O)NC(=O)OCCC(C)C)cc1F`, the IC50 in test [1] was 2 nM; in test [2], 0.1 nM.

As for `CCCc1nc(CC)c(C(=O)OCCC(=O)Nc2ccccc2)n1Cc1ccc(-c2ccccc2S(=O)(=O)NC(=O)OCCC(C)C)cc1F`, the figures for the concentration for half-maximal inhibition (IC50) in test [1] and in test [2] were 3 nM and 0.1 nM, respectively.

As for `CCCCN(Cc1ccccc1)C(=O)c1ccc(COC(=O)c2c(CC)nc(CCC)n2Cc2ccc(-c3ccccc3-c3nn[nH]n3)cc2)cc1`, the IC50 worked out at 200 nM in test [1] and 8 nM in test [2].

Turning to `CCCc1nc(CC)c(C(=O)OCc2cccc(C(=O)N(c3ccccc3)c3ccccc3)c2)n1Cc1ccc(-c2ccccc2-c2nn[nH]n2)cc1`, the IC50 in test [1] worked out at 300 nM; in test [2] it was 30 nM.

In the case of `CCCCN(CCCC)C(=O)CCCOC(=O)c1c(CC)nc(CCC)n1Cc1ccc(-c2ccccc2-c2nnn[nH]2)cc1`, the IC50 was determined as 500 nM in test [1] and 30 nM in test [2].

For the compound `CCCc1nc(CC)c(C(=O)NCCCOc2ccccc2)n1Cc1ccc(-c2ccccc2S(=O)(=O)NC(=O)OCCC(C)C)cc1F`, the IC50 in test [1] is 9 nM; in test [2], 0.3 nM.

Turning to `CCCOC(=O)NS(=O)(=O)c1ccccc1-c1ccc(Cn2c(CCC)nc(CC)c2C(=O)OCc2ccccc2-c2cncnc2)c(F)c1`, the results for the IC50 in test [1] and in test [2] were 10 nM and 0.8 nM, respectively.

Turning to `CCCCN(Cc1ccccc1)C(=O)CCCOC(=O)c1c(CC)nc(CCC)n1Cc1ccc(-c2ccccc2-c2nn[nH]n2)cc1`, the IC50 in test [1] was 300 nM; in test [2] it was 10 nM.

In the case of `CCCc1nc(CC)c(C(=O)OCc2ccccc2C(=O)c2ccccc2)n1Cc1ccc(-c2ccccc2S(=O)(=O)NC(=O)OCCC(C)C)cc1`, the half-inhibitory concentration (IC50) in test [1] came to 1.9 nM; in test [2], 0.35 nM.

In the case of `CCCc1nc(CC)c(C(=O)OCc2ccc(-c3ccccc3)cc2)n1Cc1ccc(-c2ccccc2-c2nnn[nH]2)cc1`, the values for the half-inhibitory concentration (IC50) in test [1] and in test [2] were 3000 nM and 3 nM, respectively.

As for `CCCc1nc(CC)c(C(=O)OCc2ccccc2-c2ccccc2)n1Cc1ccc(-c2ccccc2-c2nnn[nH]2)cc1`, the concentration for half-maximal inhibition (IC50) in test [1] turned out to be 2000 nM; in test [2], 3 nM.

Consider `CCCOC(=O)NS(=O)(=O)c1ccccc1-c1ccc(Cn2c(CCC)nc(CC)c2C(=O)OCc2ccccc2-c2cccs2)c(F)c1`, for which the half-inhibitory concentration (IC50) worked out at 3 nM in test [1] and 0.5 nM in test [2].

Turning to `CCCCCOC(=O)NS(=O)(=O)c1ccccc1-c1ccc(Cn2c(CCC)nc(CC)c2C(=O)OCCC(=O)Nc2ccccc2)c(F)c1`, the 50% inhibitory concentration (IC50) in test [1] is 1 nM; in test [2], 0.1 nM.

Turning to `CCCc1nc(CC)c(C(=O)NCc2ccccc2Sc2ccccc2)n1Cc1ccc(-c2ccccc2S(=O)(=O)NC(=O)OCCC(C)C)cc1F`, the figures for the IC50 in test [1] and in test [2] were 3 nM and 0.4 nM, respectively.

For the compound `CCCc1nc(CC)c(C(=O)OCc2ccccc2OCCC(C)C)n1Cc1ccc(-c2ccccc2S(=O)(=O)NC(=O)OCCC(C)C)cc1F`, the IC50 in test [1] was determined as 10 nM; in test [2] it was 3 nM.

`CCCc1nc(CC)c(C(=O)OCCCS(=O)(=O)c2ccccc2)n1Cc1ccc(-c2ccccc2S(=O)(=O)NC(=O)OCCC(C)C)cc1F`: the values for the IC50 in test [1] and in test [2] were 2 nM and 0.2 nM, respectively.

As for `CCCc1nc(CC)c(C(=O)OCc2ccc(C(=O)N(c3ccccc3)c3ccccc3)cc2)n1Cc1ccc(-c2ccccc2-c2nnn[nH]2)cc1`, the IC50 in test [1] was determined as 200 nM; in test [2] it was 20 nM.

Turning to `CCCCN(Cc1ccccc1)C(=O)C#CCOC(=O)c1c(CC)nc(CCC)n1Cc1ccc(-c2ccccc2-c2nnn[nH]2)cc1`, the IC50 worked out at 400 nM in test [1] and 10 nM in test [2].

With `CCCc1nc(CC)c(C(=O)OCc2ccccc2C(=O)C(C)(C)C)n1Cc1ccc(-c2ccccc2S(=O)(=O)NC(=O)OCCC(C)C)cc1F`, the IC50 in test [1] worked out at 3 nM; in test [2], 0.3 nM.

On to `CCCOC(=O)NS(=O)(=O)c1ccccc1-c1ccc(Cn2c(CCC)nc(CC)c2C(=O)OCc2cccc(C(=O)c3ccccc3)c2)c(F)c1`, for which the figures for the IC50 in test [1] and in test [2] were 10 nM and 0.3 nM, respectively.

Consider `CCCc1nc(CC)c(C(=O)OCCC[S+]([O-])c2ccccc2)n1Cc1ccc(-c2ccccc2S(=O)(=O)NC(=O)OCCC(C)C)cc1F` (stereo not given), for which the concentration for half-maximal inhibition (IC50) in test [1] worked out at 1 nM; in test [2], 0.2 nM.

Regarding `CCCc1nc(CC)c(C(=O)NCc2ccccc2[S+]([O-])c2ccccc2)n1Cc1ccc(-c2ccccc2S(=O)(=O)NC(=O)OCCC(C)C)cc1F` (stereo not given), the figures for the IC50 in test [1] and in test [2] were 5 nM and 0.6 nM, respectively.

For the compound `CCCc1nc(CC)c(C(=O)OCCCC(=O)Nc2ccccc2)n1Cc1ccc(-c2ccccc2S(=O)(=O)NC(=O)OCCC(C)C)cc1F`, the IC50 in test [1] was 5 nM; in test [2], 0.2 nM.

As to `CCCCOC(=O)NS(=O)(=O)c1ccccc1-c1ccc(Cn2c(CCC)nc(CC)c2C(=O)NCCCOc2ccccc2)c(F)c1`, the half-maximal inhibitory concentration (IC50) in test [1] was determined as 20 nM; in test [2] it was 0.4 nM.

For `CCCc1nc(CC)c(C(=O)OCc2ccccc2C(=O)c2ccccc2)n1Cc1ccc(-c2ccccc2S(=O)(=O)NC(=O)OCCc2ccccc2)cc1`, the IC50 in test [1] came to 2.1 nM; in test [2], 0.74 nM.

Regarding `CCCc1nc(CC)c(C(=O)OCc2ccccc2C(=O)c2ccccc2)n1Cc1ccc(-c2ccccc2-c2nnn[nH]2)cc1`, the 50% inhibitory concentration (IC50) amounted to 300 nM in test [1] and 2 nM in test [2].

In the case of `CCCc1nc(CC)c(C(=O)OCc2ccccc2OC)n1Cc1ccc(-c2ccccc2S(=O)(=O)NC(=O)OCCC(C)C)cc1F`, the IC50 came out at 1 nM in test [1] and 0.1 nM in test [2].

As to `CCCc1nc(CC)c(C(=O)OCc2ccccc2-c2ccccc2)n1Cc1ccc(-c2ccccc2S(=O)(=O)NC(=O)OCCC(C)C)cc1F`, the values for the IC50 in test [1] and in test [2] were 9 nM and 3 nM, respectively.

For the compound `CCCc1nc(CC)c(C(=O)OCCCN2C(=O)c3ccccc3C2=O)n1Cc1ccc(-c2ccccc2S(=O)(=O)NC(=O)OCCC(C)C)cc1F`, the concentration for half-maximal inhibition (IC50) in test [1] was 3 nM; in test [2] it was 0.1 nM.

In the case of `CCCCN(Cc1ccccc1)C(=O)CCCOC(=O)c1c(CC)nc(CCC)n1Cc1ccc(-c2ccccc2S(=O)(=O)NC(=O)OCCC(C)C)cc1F`, the IC50 in test [1] turned out to be 5 nM; in test [2], 0.2 nM.

In the case of `CCCc1nc(CC)c(C(=O)OCC(=O)c2ccccc2)n1Cc1ccc(-c2ccccc2S(=O)(=O)NC(=O)OCCC(C)C)cc1F`, the 50% inhibitory concentration (IC50) in test [1] was 2 nM; in test [2], 0.1 nM.

Regarding `CCCc1nc(CC)c(C(=O)OCc2ccccc2C(=O)c2ccccc2)n1Cc1ccc(-c2ccccc2S(=O)(=O)NC(=O)OCCc2ccccc2)cc1F`, the IC50 in test [1] was determined as 0.69 nM; in test [2] it was 0.57 nM.

On to `CCCc1nc(CC)c(C(=O)OCc2cccc(C(=O)c3ccccc3)c2)n1Cc1ccc(-c2ccccc2S(=O)(=O)NC(=O)OCCC(C)C)cc1F`, for which the IC50 was determined as 0.9 nM in test [1] and 0.6 nM in test [2].

Regarding `CCCOC(=O)NS(=O)(=O)c1ccccc1-c1ccc(Cn2c(CCC)nc(CC)c2C(=O)OCc2ccccc2-c2ccsc2)c(F)c1`, the IC50 turned out to be 20 nM in test [1] and 0.3 nM in test [2].

For the compound `CCCCOC(=O)NS(=O)(=O)c1ccccc1-c1ccc(Cn2c(CCC)nc(CC)c2C(=O)OCc2ccccc2Oc2ccccc2)c(F)c1`, the 50% inhibitory concentration (IC50) stood at 3 nM in test [1] and 0.6 nM in test [2].

Turning to `CCCc1nc(CC)c(C(=O)OCc2cccc(C(=O)c3ccccc3)c2)n1Cc1ccc(-c2ccccc2-c2nn[nH]n2)cc1`, the IC50 is 1000 nM in test [1] and 9 nM in test [2].

Take `CCCc1nc(CC)c(C(=O)OCc2ccccc2C(=O)c2ccccc2)n1Cc1ccc(-c2ccccc2S(=O)(=O)NC(=O)OCC(C)C)cc1F`: the concentration for half-maximal inhibition (IC50) in test [1] turned out to be 1 nM; in test [2], 0.5 nM.

Take `CCCc1nc(CC)c(C(=O)OCC#CC(=O)N(c2ccccc2)c2ccccc2)n1Cc1ccc(-c2ccccc2-c2nn[nH]n2)cc1`: the IC50 in test [1] came out at 600 nM; in test [2], 40 nM.

On to `CCCc1nc(CC)c(C(=O)OCc2ccccc2-c2ccsc2)n1Cc1ccc(-c2ccccc2S(=O)(=O)NC(=O)OCCC(C)C)cc1F`, for which the results for the IC50 in test [1] and in test [2] were 20 nM and 0.6 nM, respectively.

With `CCCc1nc(CC)c(C(=O)OC(C(=O)c2ccccc2)c2ccccc2)n1Cc1ccc(-c2ccccc2S(=O)(=O)NC(=O)OCCC(C)C)cc1F` (stereo not given), the figures for the IC50 in test [1] and in test [2] were 3 nM and 0.8 nM, respectively.
